According to PMC12027702, “Evaluation of Tyrosinase Inhibitory Activity of Carbathioamidopyrazoles and Their Potential Application in Cosmetic Products and Melanoma Treatment” (International Journal of Molecular Sciences, 2025):

The compounds below were run against T1, mushroom tyrosinase (assay: Dixon plot, L-DOPA oxidation, absorbance at […] nm). Conditions: L-DOPA substrate, phosphate buffer pH 6.88, 20 °C, 20 min preincubation, 10% DMSO; competitive.
T1 construct: gene PPO3; PDB 2Y9X is only the docking model
Assay type: biochemical

Ki | Structure (SMILES)
14.6 µM | Cc1cc(C)n(C(N)=S)n1 [compound 1, 1-[amino(thioxo)methyl]-3,5-dimethyl-1Hpyrazole]
64.4 µM | CCc1cc(CC)n(C(N)=S)n1 [compound 2, 1-[amino(thioxo)methyl]-3,5-diethyl-1Hpyrazole]
118 µM | NC(=S)n1nc(-c2ccccc2)cc1O [compound 3, 1-[amino(thioxo)methyl]-5-hydroxy-3-phenyl-1Hpyrazole]
7.88 µM | Cc1cc(O)n(C(N)=S)n1 [compound 4, 1-[amino(thioxo)methyl]-5-hydroxy-3-methyl-1H-pyrazole]
